Source: patent US20250206727A1, “HETEROCYCLIC SUBSTITUTED AROMATIC COMPOUND, PREPARATION METHOD THEREFOR, HERBICIDAL COMPOSITION AND APPLICATION” (QINGDAO KINGAGROOT CHEMICAL COMPOUND CO., LTD., priority 2022, published 2025)

Experiments:
Test in all cases: Post-emergence test on weeds (greenhouse, spray at 2-3 leaf stage)
Assay type in all cases: in vivo
Set-up in all cases: key: Level 10: completely dead; Level 9: growth control rate greater than or equal to 90% and less than 100%; Level 8: growth control rate greater than or equal to 80% and less than 90%; Level 7: growth control rate greater than or equal to 70% and less than 80%; Level 6: growth control rate greater than or equal to 60% and less than 70%; Level 5: growth control rate greater than or equal to 50% and less than 60%; Level 4: growth control rate greater than or equal to 40% and less than 50%; Level 3: growth control rate greater than or equal to 30% and less than 40%; Level 2: growth control rate greater than or equal to 20% and less than 30%; Level 1: growth control rate less than 20%; Level 0: no effect
Conditions in all cases: 3 weeks after application
Abutilon theophrasti = system: Abutilon theophrasti
Summary of the method: (§1)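 Pot-grown plants were spray-tower treated two weeks after sowing with compound in acetone/Tween 80 plus 1.5 L/ha methyl oleate EC, at rates from 500 to 7.5 g a.i./ha. Fresh-weight growth control was scored 0–10 after 3 weeks in the greenhouse, averaged over triplicates.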

Amaranthus retroflexus = system: Amaranthus retroflexus
Summary of the method: as §1

Digitaria sanguinalis = system: Digitaria sanguinalis
Summary of the method: as §1

Echinochloa crus-galli = system: Echinochloa crus-galli
Summary of the method: as §1

Setaria viridis = system: Setaria viridis
Summary of the method: as §1

Veronica polita = system: Veronica polita
Summary of the method: as §1

CCOC(=O)C1(C)ON=C(c2cc(-c3ncc(C(F)(F)F)cc3OC)c(F)cc2Cl)O1 (stereo not drawn) [Compound 33]
10: activity level (fresh weight growth control rate), Abutilon theophrasti (Abutilon theophrasti; 60 g a.i./ha) | activity level (fresh weight growth control rate), Amaranthus retroflexus (Amaranthus retroflexus; 60 g a.i./ha) | activity level (fresh weight growth control rate), Digitaria sanguinalis (Digitaria sanguinalis; 60 g a.i./ha) | activity level (fresh weight growth control rate), Echinochloa crus-galli (Echinochloa crus-galli; 60 g a.i./ha) | activity level (fresh weight growth control rate), Setaria viridis (Setaria viridis; 60 g a.i./ha) | activity level (fresh weight growth control rate), Veronica polita (Veronica polita; 60 g a.i./ha)

CC1(C(=O)ON=C2CCCC2)ON=C(c2cc(-c3ncc(C(F)(F)F)cc3Cl)c(F)cc2Cl)O1 (racemic) [Compound 145]
10: activity level (fresh weight growth control rate), Abutilon theophrasti (Abutilon theophrasti; 60 g a.i./ha) | activity level (fresh weight growth control rate), Amaranthus retroflexus (Amaranthus retroflexus; 60 g a.i./ha) | activity level (fresh weight growth control rate), Digitaria sanguinalis (Digitaria sanguinalis; 60 g a.i./ha) | activity level (fresh weight growth control rate), Echinochloa crus-galli (Echinochloa crus-galli; 60 g a.i./ha) | activity level (fresh weight growth control rate), Setaria viridis (Setaria viridis; 60 g a.i./ha) | activity level (fresh weight growth control rate), Veronica polita (Veronica polita; 60 g a.i./ha)

CCOC(=O)C1(C)ON=C(c2cc(-c3ncc(C(F)(F)F)cc3Cl)c(F)cc2C(F)(F)F)O1 (stereo not drawn) [Compound 54]
10: activity level (fresh weight growth control rate), Abutilon theophrasti (Abutilon theophrasti; 60 g a.i./ha) | activity level (fresh weight growth control rate), Amaranthus retroflexus (Amaranthus retroflexus; 60 g a.i./ha) | activity level (fresh weight growth control rate), Digitaria sanguinalis (Digitaria sanguinalis; 60 g a.i./ha) | activity level (fresh weight growth control rate), Echinochloa crus-galli (Echinochloa crus-galli; 60 g a.i./ha) | activity level (fresh weight growth control rate), Setaria viridis (Setaria viridis; 60 g a.i./ha) | activity level (fresh weight growth control rate), Veronica polita (Veronica polita; 60 g a.i./ha)

CC(C)=CCOC(=O)C1(C)ON=C(c2cc(-c3ncc(C(F)(F)F)cc3Cl)c(F)cc2Cl)O1 (stereo not drawn) [Compound 96]
10: activity level (fresh weight growth control rate), Abutilon theophrasti (Abutilon theophrasti; 60 g a.i./ha) | activity level (fresh weight growth control rate), Amaranthus retroflexus (Amaranthus retroflexus; 60 g a.i./ha) | activity level (fresh weight growth control rate), Digitaria sanguinalis (Digitaria sanguinalis; 60 g a.i./ha) | activity level (fresh weight growth control rate), Echinochloa crus-galli (Echinochloa crus-galli; 60 g a.i./ha) | activity level (fresh weight growth control rate), Setaria viridis (Setaria viridis; 60 g a.i./ha) | activity level (fresh weight growth control rate), Veronica polita (Veronica polita; 60 g a.i./ha)

Cc1cc(C)n(C(=O)C2(C)ON=C(c3cc(-c4ncc(C(F)(F)F)cc4Cl)c(F)cc3Cl)O2)n1 (racemic) [Compound 156]
10: activity level (fresh weight growth control rate), Abutilon theophrasti (Abutilon theophrasti; 60 g a.i./ha) | activity level (fresh weight growth control rate), Amaranthus retroflexus (Amaranthus retroflexus; 60 g a.i./ha) | activity level (fresh weight growth control rate), Digitaria sanguinalis (Digitaria sanguinalis; 60 g a.i./ha) | activity level (fresh weight growth control rate), Echinochloa crus-galli (Echinochloa crus-galli; 60 g a.i./ha) | activity level (fresh weight growth control rate), Setaria viridis (Setaria viridis; 60 g a.i./ha) | activity level (fresh weight growth control rate), Veronica polita (Veronica polita; 60 g a.i./ha)

CC(C)=NOC(=O)C1(C)ON=C(c2cc(-c3ncc(C(F)(F)F)cc3Cl)c(F)cc2Cl)O1 (racemic) [Compound 137]
10: activity level (fresh weight growth control rate), Abutilon theophrasti (Abutilon theophrasti; 60 g a.i./ha) | activity level (fresh weight growth control rate), Amaranthus retroflexus (Amaranthus retroflexus; 60 g a.i./ha) | activity level (fresh weight growth control rate), Digitaria sanguinalis (Digitaria sanguinalis; 60 g a.i./ha) | activity level (fresh weight growth control rate), Echinochloa crus-galli (Echinochloa crus-galli; 60 g a.i./ha) | activity level (fresh weight growth control rate), Setaria viridis (Setaria viridis; 60 g a.i./ha) | activity level (fresh weight growth control rate), Veronica polita (Veronica polita; 60 g a.i./ha)

CCOC(=O)C1(CC)ON=C(c2cc(-c3ncc(C(F)(F)F)cc3F)c(F)cc2Cl)O1 (stereo not drawn) [Compound 58]
10: activity level (fresh weight growth control rate), Abutilon theophrasti (Abutilon theophrasti; 60 g a.i./ha) | activity level (fresh weight growth control rate), Amaranthus retroflexus (Amaranthus retroflexus; 60 g a.i./ha) | activity level (fresh weight growth control rate), Digitaria sanguinalis (Digitaria sanguinalis; 60 g a.i./ha) | activity level (fresh weight growth control rate), Echinochloa crus-galli (Echinochloa crus-galli; 60 g a.i./ha) | activity level (fresh weight growth control rate), Setaria viridis (Setaria viridis; 60 g a.i./ha) | activity level (fresh weight growth control rate), Veronica polita (Veronica polita; 60 g a.i./ha)

C=CCCCOC(=O)C1(C)ON=C(c2cc(-c3ncc(C(F)(F)F)cc3Cl)c(F)cc2Cl)O1 (stereo not drawn) [Compound 106]
10: activity level (fresh weight growth control rate), Abutilon theophrasti (Abutilon theophrasti; 60 g a.i./ha) | activity level (fresh weight growth control rate), Amaranthus retroflexus (Amaranthus retroflexus; 60 g a.i./ha) | activity level (fresh weight growth control rate), Digitaria sanguinalis (Digitaria sanguinalis; 60 g a.i./ha) | activity level (fresh weight growth control rate), Echinochloa crus-galli (Echinochloa crus-galli; 60 g a.i./ha) | activity level (fresh weight growth control rate), Setaria viridis (Setaria viridis; 60 g a.i./ha) | activity level (fresh weight growth control rate), Veronica polita (Veronica polita; 60 g a.i./ha)

CCOC(=O)C1(C)ON=C(c2cc(-c3ncc(C(F)(F)F)cc3Cl)c(F)cc2C#N)O1 (stereo not drawn) [Compound 56]
10: activity level (fresh weight growth control rate), Abutilon theophrasti (Abutilon theophrasti; 60 g a.i./ha) | activity level (fresh weight growth control rate), Amaranthus retroflexus (Amaranthus retroflexus; 60 g a.i./ha) | activity level (fresh weight growth control rate), Digitaria sanguinalis (Digitaria sanguinalis; 60 g a.i./ha) | activity level (fresh weight growth control rate), Echinochloa crus-galli (Echinochloa crus-galli; 60 g a.i./ha) | activity level (fresh weight growth control rate), Setaria viridis (Setaria viridis; 60 g a.i./ha) | activity level (fresh weight growth control rate), Veronica polita (Veronica polita; 60 g a.i./ha)

CCOC(=O)C1(C)ON=C(c2cc(-c3ncc(C(F)(F)F)cc3Cl)c(F)cc2Cl)O1 (stereo not drawn) [Compound 39]
10: activity level (fresh weight growth control rate), Abutilon theophrasti (Abutilon theophrasti; 15 g a.i./ha) | activity level (fresh weight growth control rate), Amaranthus retroflexus (Amaranthus retroflexus; 15 g a.i./ha) | activity level (fresh weight growth control rate), Digitaria sanguinalis (Digitaria sanguinalis; 15 g a.i./ha) | activity level (fresh weight growth control rate), Echinochloa crus-galli (Echinochloa crus-galli; 15 g a.i./ha) | activity level (fresh weight growth control rate), Setaria viridis (Setaria viridis; 15 g a.i./ha) | activity level (fresh weight growth control rate), Veronica polita (Veronica polita; 15 g a.i./ha)

Cc1ccc(C=NOC(=O)C2(C)ON=C(c3cc(-c4ncc(C(F)(F)F)cc4Cl)c(F)cc3Cl)O2)s1 (racemic) [Compound 144]
10: activity level (fresh weight growth control rate), Abutilon theophrasti (Abutilon theophrasti; 60 g a.i./ha) | activity level (fresh weight growth control rate), Amaranthus retroflexus (Amaranthus retroflexus; 60 g a.i./ha) | activity level (fresh weight growth control rate), Digitaria sanguinalis (Digitaria sanguinalis; 60 g a.i./ha) | activity level (fresh weight growth control rate), Echinochloa crus-galli (Echinochloa crus-galli; 60 g a.i./ha) | activity level (fresh weight growth control rate), Setaria viridis (Setaria viridis; 60 g a.i./ha) | activity level (fresh weight growth control rate), Veronica polita (Veronica polita; 60 g a.i./ha)

CCOC(=O)C1(C)ON=C(c2cc(-c3ncc(F)cc3Cl)c(F)cc2Cl)O1 (stereo not drawn) [Compound 35]
10: activity level (fresh weight growth control rate), Abutilon theophrasti (Abutilon theophrasti; 60 g a.i./ha) | activity level (fresh weight growth control rate), Amaranthus retroflexus (Amaranthus retroflexus; 60 g a.i./ha) | activity level (fresh weight growth control rate), Digitaria sanguinalis (Digitaria sanguinalis; 60 g a.i./ha) | activity level (fresh weight growth control rate), Echinochloa crus-galli (Echinochloa crus-galli; 60 g a.i./ha) | activity level (fresh weight growth control rate), Setaria viridis (Setaria viridis; 60 g a.i./ha) | activity level (fresh weight growth control rate), Veronica polita (Veronica polita; 60 g a.i./ha)

CC(C#N)OC(=O)C1(C)ON=C(c2cc(-c3ncc(C(F)(F)F)cc3Cl)c(F)cc2Cl)O1 (stereo not drawn) [Compound 116]
10: activity level (fresh weight growth control rate), Abutilon theophrasti (Abutilon theophrasti; 60 g a.i./ha) | activity level (fresh weight growth control rate), Amaranthus retroflexus (Amaranthus retroflexus; 60 g a.i./ha) | activity level (fresh weight growth control rate), Digitaria sanguinalis (Digitaria sanguinalis; 60 g a.i./ha) | activity level (fresh weight growth control rate), Echinochloa crus-galli (Echinochloa crus-galli; 60 g a.i./ha) | activity level (fresh weight growth control rate), Setaria viridis (Setaria viridis; 60 g a.i./ha) | activity level (fresh weight growth control rate), Veronica polita (Veronica polita; 60 g a.i./ha)
